# Experiment: Diffusion coefficient (Dcoeff) of FtsA from FRAP
# Details: for Diffusion Coefficient, mean: Fig. 3j
# From the text: We could also use the data from these bleaching experiments to quantify the membrane-binding kinetics and diffusion of membrane-bound proteins by analysing the change of the fluorescence profile during recovery.
# Equimolar concentrations of Cy3- and Cy5-labelled FtsA, supplemented with 20% unlabelled FtsA were used to study FRET and FRAP. Five pre-bleach frames were acquired, followed by acceptor photobleaching of a rectangular ROI with 40% 641 nm laser power and a dwell size of 1 µs/pixel, 75% overlapping lines. The recovery of the signal or the increase in donor intensity were measured with either two frames or one frame per second.
# Bleaching the acceptor dye leads to an increase in the donor intensity, which can be used to quantify the Foerster Resonance energy transfer (FRET)[48]. FRET efficiency was quantified with E%=Ipost/Ipost+Ipre⋅100 , where Ipost is the intensity of the […] and Ipre is the […]. […] To extract the contribution of both processes, we adjusted a routine recently published by Gerganova et al.[33]. In short, the code provides the contribution of both modes of recovery by analysing the shape of the fluorescence recovery profile. […] Contribution of diffusion leads to a change of the slope of the outer borders of the bleached region (S4h right). Thus, by measuring the change of the slope of the border recovery, diffusion and simple on/off binding can be distinguished. We developed “FRAPdiff”, a graphical user interface, which uses the original fit routine by David Rutkowski. It can be used directly on.tiff movies with annotated bleach regions as ImageJ ROIs. In addition, we added optional bleach correction, user selectable projection axis (x or y), and optional mirroring of the recovery profiles, if bleaching was not symmetric. The original fit routine for estimating the recovery and diffusion dynamics can be found at https://github.com/davidmrutkowski/1DReflectingDiffusion. FRAPdiff is available at 10.5281/zenodo.6400639[49] under the GPLv3 open-source license.
substance,measurement,setting,value
"FtsA WT: wild-type E. coli actin-homologue FtsA, membrane anchor of FtsZ","Diffusion Coefficient, mean",0.1 µM FtsA + N,1.61E-02 µm2/s
same,"Diffusion Coefficient, mean",0.1 µM FtsA + Z&N,1.18E-02 µm2/s
same,"Diffusion Coefficient, mean",0.1 µM FtsA + Z,1.69E-02 µm2/s
same,Diffusion Coefficient,"0.1µM FtsA alone, Mean, n=18 (WT), 6 (R286W)",0.0268
same,"Diffusion Coefficient, mean",0.1 µM FtsA alone,2.68E-02 µm2/s
same,Diffusion Coefficient,"0.1µM FtsA alone, replicate Exp.1",5.58E-02
same,Diffusion Coefficient,"0.1µM FtsA alone, replicate Exp.10",2.60E-03
same,Diffusion Coefficient,"0.1µM FtsA alone, replicate Exp.11",5.85E-03
same,Diffusion Coefficient,"0.1µM FtsA alone, replicate Exp.12",4.68E-03
same,Diffusion Coefficient,"0.1µM FtsA alone, replicate Exp.13",4.29E-02
same,Diffusion Coefficient,"0.1µM FtsA alone, replicate Exp.14",3.12E-02
same,Diffusion Coefficient,"0.1µM FtsA alone, replicate Exp.15",2.09E-02
same,Diffusion Coefficient,"0.1µM FtsA alone, replicate Exp.16",1.45E-02
same,Diffusion Coefficient,"0.1µM FtsA alone, replicate Exp.17",4.66E-02
same,Diffusion Coefficient,"0.1µM FtsA alone, replicate Exp.18",2.25E-02
same,Diffusion Coefficient,"0.1µM FtsA alone, replicate Exp.2",3.42E-03
same,Diffusion Coefficient,"0.1µM FtsA alone, replicate Exp.3",1.87E-02
same,Diffusion Coefficient,"0.1µM FtsA alone, replicate Exp.4",5.22E-02
same,Diffusion Coefficient,"0.1µM FtsA alone, replicate Exp.5",2.45E-02
same,Diffusion Coefficient,"0.1µM FtsA alone, replicate Exp.6",4.34E-02
same,Diffusion Coefficient,"0.1µM FtsA alone, replicate Exp.7",4.83E-02
same,Diffusion Coefficient,"0.1µM FtsA alone, replicate Exp.8",3.63E-02
same,Diffusion Coefficient,"0.1µM FtsA alone, replicate Exp.9",8.38E-03
same,Diffusion Coefficient,"0.1µM, + FtsN&Z, Mean, n=5 (WT), 3 (R286W)",0.0118
same,Diffusion Coefficient,"0.1µM, + FtsN&Z, replicate Exp.1",3.37E-03
same,Diffusion Coefficient,"0.1µM, + FtsN&Z, replicate Exp.2",5.52E-03
same,Diffusion Coefficient,"0.1µM, + FtsN&Z, replicate Exp.3",9.34E-03
same,Diffusion Coefficient,"0.1µM, + FtsN&Z, replicate Exp.4",2.03E-02
same,Diffusion Coefficient,"0.1µM, + FtsN&Z, replicate Exp.5",2.02E-02
same,Diffusion Coefficient,"0.1µM, + FtsN, Mean, n=5 (WT), 3 (R286W)",0.0161
same,Diffusion Coefficient,"0.1µM, + FtsN, replicate Exp.1",2.03E-02
same,Diffusion Coefficient,"0.1µM, + FtsN, replicate Exp.2",6.39E-04
same,Diffusion Coefficient,"0.1µM, + FtsN, replicate Exp.3",1.18E-02
same,Diffusion Coefficient,"0.1µM, + FtsN, replicate Exp.4",1.64E-02
same,Diffusion Coefficient,"0.1µM, + FtsN, replicate Exp.5",3.14E-02
same,Diffusion Coefficient,"0.1µM, + FtsZ, Mean, n=8 (WT), 4 (R286W)",0.0169
same,Diffusion Coefficient,"0.1µM, + FtsZ, replicate Exp.1",1.01E-02
same,Diffusion Coefficient,"0.1µM, + FtsZ, replicate Exp.2",2.79E-03
same,Diffusion Coefficient,"0.1µM, + FtsZ, replicate Exp.3",1.71E-02
same,Diffusion Coefficient,"0.1µM, + FtsZ, replicate Exp.4",3.53E-02
same,Diffusion Coefficient,"0.1µM, + FtsZ, replicate Exp.5",2.97E-02
same,Diffusion Coefficient,"0.1µM, + FtsZ, replicate Exp.6",3.44E-03
same,Diffusion Coefficient,"0.1µM, + FtsZ, replicate Exp.7",2.52E-02
same,Diffusion Coefficient,"0.1µM, + FtsZ, replicate Exp.8",1.14E-02
same,"Diffusion Coefficient, mean",0.2 µM FtsA + N,1.32E-02 µm2/s
same,"Diffusion Coefficient, mean",0.2 µM FtsA + Z&N,7.76E-03 µm2/s
same,"Diffusion Coefficient, mean",0.2 µM FtsA + Z,8.12E-03 µm2/s
same,Diffusion Coefficient,"0.2µM FtsA alone, Mean, n=24 (WT), 6 (R286W)",0.0177
same,"Diffusion Coefficient, mean",0.2 µM FtsA alone,1.77E-02 µm2/s
same,Diffusion Coefficient,"0.2µM FtsA alone, replicate Exp.1",1.00E-02
same,Diffusion Coefficient,"0.2µM FtsA alone, replicate Exp.10",2.11E-07
same,Diffusion Coefficient,"0.2µM FtsA alone, replicate Exp.11",2.08E-02
same,Diffusion Coefficient,"0.2µM FtsA alone, replicate Exp.12",4.11E-02
same,Diffusion Coefficient,"0.2µM FtsA alone, replicate Exp.13",2.52E-02
same,Diffusion Coefficient,"0.2µM FtsA alone, replicate Exp.14",2.77E-02
same,Diffusion Coefficient,"0.2µM FtsA alone, replicate Exp.15",1.77E-05
same,Diffusion Coefficient,"0.2µM FtsA alone, replicate Exp.16",1.11E-02
same,Diffusion Coefficient,"0.2µM FtsA alone, replicate Exp.17",1.44E-03
same,Diffusion Coefficient,"0.2µM FtsA alone, replicate Exp.18",2.14E-02
same,Diffusion Coefficient,"0.2µM FtsA alone, replicate Exp.19",1.18E-02
same,Diffusion Coefficient,"0.2µM FtsA alone, replicate Exp.2",4.63E-02
same,Diffusion Coefficient,"0.2µM FtsA alone, replicate Exp.20",1.47E-02
same,Diffusion Coefficient,"0.2µM FtsA alone, replicate Exp.21",5.71E-03
same,Diffusion Coefficient,"0.2µM FtsA alone, replicate Exp.22",9.23E-03
same,Diffusion Coefficient,"0.2µM FtsA alone, replicate Exp.23",4.39E-06
same,Diffusion Coefficient,"0.2µM FtsA alone, replicate Exp.24",1.05E-03
same,Diffusion Coefficient,"0.2µM FtsA alone, replicate Exp.3",3.82E-02
same,Diffusion Coefficient,"0.2µM FtsA alone, replicate Exp.4",2.69E-04
same,Diffusion Coefficient,"0.2µM FtsA alone, replicate Exp.5",3.65E-02
same,Diffusion Coefficient,"0.2µM FtsA alone, replicate Exp.6",2.63E-02
same,Diffusion Coefficient,"0.2µM FtsA alone, replicate Exp.7",1.83E-02
same,Diffusion Coefficient,"0.2µM FtsA alone, replicate Exp.8",5.09E-02
same,Diffusion Coefficient,"0.2µM FtsA alone, replicate Exp.9",5.70E-03
same,Diffusion Coefficient,"0.2µM, + FtsN&Z, Mean, n=8 (WT), 6 (R286W)",0.0078
same,Diffusion Coefficient,"0.2µM, + FtsN&Z, replicate Exp.1",1.04E-02
same,Diffusion Coefficient,"0.2µM, + FtsN&Z, replicate Exp.2",2.82E-03
same,Diffusion Coefficient,"0.2µM, + FtsN&Z, replicate Exp.3",5.82E-03
same,Diffusion Coefficient,"0.2µM, + FtsN&Z, replicate Exp.4",1.62E-02
same,Diffusion Coefficient,"0.2µM, + FtsN&Z, replicate Exp.5",5.88E-03
same,Diffusion Coefficient,"0.2µM, + FtsN&Z, replicate Exp.6",3.75E-03
same,Diffusion Coefficient,"0.2µM, + FtsN&Z, replicate Exp.7",5.36E-03
same,Diffusion Coefficient,"0.2µM, + FtsN&Z, replicate Exp.8",1.18E-02
same,Diffusion Coefficient,"0.2µM, + FtsN, Mean, n=7 (WT), 4 (R286W)",0.0132
same,Diffusion Coefficient,"0.2µM, + FtsN, replicate Exp.1",1.41E-02
same,Diffusion Coefficient,"0.2µM, + FtsN, replicate Exp.2",1.35E-02
same,Diffusion Coefficient,"0.2µM, + FtsN, replicate Exp.3",8.81E-03
same,Diffusion Coefficient,"0.2µM, + FtsN, replicate Exp.4",1.88E-02
same,Diffusion Coefficient,"0.2µM, + FtsN, replicate Exp.5",1.36E-02
same,Diffusion Coefficient,"0.2µM, + FtsN, replicate Exp.6",1.15E-02
same,Diffusion Coefficient,"0.2µM, + FtsN, replicate Exp.7",1.21E-02
same,Diffusion Coefficient,"0.2µM, + FtsZ, Mean, n=7 (WT), 6 (R286W)",0.0081
same,Diffusion Coefficient,"0.2µM, + FtsZ, replicate Exp.1",8.42E-03
same,Diffusion Coefficient,"0.2µM, + FtsZ, replicate Exp.2",4.10E-03
same,Diffusion Coefficient,"0.2µM, + FtsZ, replicate Exp.3",4.88E-04
